Square brackets hold non-standard residues; d marks the D form. Peptide text beside a SMILES is read from it. Gly(N(CH2)2(3-indolyl)) = O=C(O)CNCCc1c[nH]c2ccccc12; Nspe = C[C@H](NCC(=O)O)c1ccccc1; Nphe = O=C(O)CNCc1ccccc1; Nlys = NCCCCNCC(=O)O
Tests used:
rat erythrocytes = test: Hemolysis assay; format: cell-based
Description: The hemolysis assay was performed using rat erythrocytes in phosphate‐buffered saline (PBS), as reported by Mendes et al.^[ [45] ^] Animal studies were approved by the Laboratory Animal Resource Center of Gwangju Institute of Science and Technology. Blood was collected from a 13‐week‐old male Sprague‐Dawley rat in tubes containing 158 USP units of sodium heparin to prevent coagulation and centrifuged at 1000 rpm for 10 min at 4 °C. Plasma was removed carefully and erythrocyte pellets were washed three times with PBS (35 mM phosphate, pH 7.4, 150 mM NaCl). Next, 150 µL of a 10% erythrocyte suspension was mixed with 50 µL of serially diluted peptoids (0–100 µM) in a 96‐well black polypropylene plates (Greiner, Kremsmünster, Austria). Untreated erythrocytes and cells lysed by the addition of 1% Triton X‐100 were used as negative and positive controls, respectively, with the 1% Triton X‐100‐treated wells being accepted to represent 100% hemolysis. The reaction mixture was incubated at 37 °C for 60 min, and the plates were centrifuged at 1000 rpm for 15 min. Aliquots (150 µL) of the supernatant were transferred to fresh 96‐well plates, and the absorbance of each well was measured at 540 nm using a microplate reader. Hemolysis induced by peptoids was calculated as the percentage value of Triton X‐100 lysed cells. The percentage of hemolysis by the extracts was calculated according to the following formula: % hemolysis = [(Abs 540 nm in the peptoid solution – Abs 540 nm in PBS) / (Abs 540 nm in 1% Triton X‐100 – Abs 540 nm in PBS)] × 100. HC10 and HC50 were defined as the peptoid concentrations that caused 10% and 50% hemolysis in rat erythrocytes, respectively. H max indicates the percentage of hemolysis observed at the maximum peptoid concentration, 100 µM throughout this study.

[1] = Analytical reversed-phase HPLC elution (hydrophobicity); format: physicochemical; conditions: Table S1; analytical RP-HPLC, SunFire C18, water/ACN + 0.1% TFA, 5 to 100% B linear over 30 min, 1 mL/min, UV 220 nm; approximate comparison of hydrophobicity
Description: 7. HPLC chromatogram, retention time (tR), and LC-MS data
HPLC analysis of peptoids was conducted using a Waters HPLC system equipped with a Waters 2489 UV/Visible Detector, 1525 Binary HPLC Pump, 2707 Autosampler, 5CH column oven, and a C18 column (SunFire C18, 4.6 × 250 mm, 5 μm; Waters Corp., Milford, MA, USA). The mobile phases were deionized water (A, with + 0.1% TFA) and acetonitrile (ACN; B, with + 0.1% TFA). Before sample injection, the column was conditioned with 5% B for 10 min. Then, the mobile phase was maintained at 5% B for 2 min, followed by increasing B to 100% using a linear gradient over 30 min. At this point, 100% B was maintained for 5 additional min. The flow rate of the mobile phase was 1 mL/min. The sample was detected by measuring absorbance at 220 nm. […]

HPLC elution [1] [% MeCN] | Structure (SMILES) | Hmax (100 µM) (rat erythrocytes) [%] | HC10 (rat erythrocytes; pH 7.4) [µM] | HC50 (rat erythrocytes; pH 7.4) [µM] | HC10 (rat erythrocytes; red cells of rat) [µM] | HC50 (rat erythrocytes; red cells of rat) [µM]
53.2 | C[C@@H](c1ccccc1)N(CC(N)=O)C(=O)CN(C(=O)CN(CCCCN)C(=O)CN(C(=O)CN(C(=O)CN(CCCCN)C(=O)CN(CCc1c[nH]c2ccccc12)C(=O)CN(CCc1c[nH]c2ccccc12)C(=O)CN(CCCCN)C(=O)CN(CCc1c[nH]c2ccccc12)C(=O)CN(CCc1c[nH]c2ccccc12)C(=O)CNCCCCN)[C@@H](C)c1ccccc1)[C@@H](C)c1ccccc1)[C@@H](C)c1ccccc1 [peptoid 21] | 83.7±2.0 | 23.2 | 64.9 | – | –
52.8 | C[C@@H](c1ccccc1)N(CC(=O)N(CCCCN)CC(=O)N(CC(=O)N(CC(=O)N(CCCCN)CC(=O)N(CCc1c[nH]c2ccccc12)CC(=O)N(CCc1c[nH]c2ccccc12)CC(=O)N(CCCCN)CC(=O)N(CCc1c[nH]c2ccccc12)CC(=O)N(CCc1c[nH]c2ccccc12)CC(N)=O)[C@@H](C)c1ccccc1)[C@@H](C)c1ccccc1)C(=O)CN(C(=O)CNCCCCN)[C@@H](C)c1ccccc1 [peptoid 19] (H-[Nlys][Nspe][Nspe][Nlys][Nspe][Nspe][Nlys][Gly(N(CH2)2(3-indolyl))][Gly(N(CH2)2(3-indolyl))][Nlys][Gly(N(CH2)2(3-indolyl))][Gly(N(CH2)2(3-indolyl))]-NH2) | 101.5±1.3 | 3.8 | 12.5 | – | –
48.6 | C[C@@H](c1ccccc1)N(CC(N)=O)C(=O)CN(C(=O)CN(CCCCN)C(=O)CN(C(=O)CN(C(=O)CN(CCCCN)C(=O)CN(C(=O)CN(CCCCN)C(=O)CN(CCCCN)C(=O)CN(CCc1c[nH]c2ccccc12)C(=O)CN(CCc1c[nH]c2ccccc12)C(=O)CNCCCCN)[C@@H](C)c1ccccc1)[C@@H](C)c1ccccc1)[C@@H](C)c1ccccc1)[C@@H](C)c1ccccc1 [peptoid 34] | 8.5±1.1 | > 100 | > 100 | – | –
52.7 | C[C@@H](c1ccccc1)N(CC(N)=O)C(=O)CN(C(=O)CN(CCCCN)C(=O)CN(CCc1c[nH]c2ccccc12)C(=O)CN(CCc1c[nH]c2ccccc12)C(=O)CN(CCCCN)C(=O)CN(CCc1c[nH]c2ccccc12)C(=O)CN(CCc1c[nH]c2ccccc12)C(=O)CN(CCCCN)C(=O)CN(C(=O)CN(C(=O)CNCCCCN)[C@@H](C)c1ccccc1)[C@@H](C)c1ccccc1)[C@@H](C)c1ccccc1 [peptoid 20] | 106.7±3.5 | 8.2 | 33.9 | – | –

More lines, now with the values behind:

Structure (SMILES) | HPLC elution [1] [% MeCN] | Hmax (100 µM) (rat erythrocytes) [%] | HC10 (rat erythrocytes; pH 7.4) [µM] | HC50 (rat erythrocytes; pH 7.4) [µM] | HC10 (rat erythrocytes; red cells of rat) [µM] | HC50 (rat erythrocytes; red cells of rat) [µM]
C[C@@H](c1ccccc1)N(CC(N)=O)C(=O)CN(C(=O)CN(CCCCN)C(=O)CN(C(=O)CN(C(=O)CN(CCCCN)C(=O)CN(CCc1c[nH]c2ccccc12)C(=O)CN(CCCCN)C(=O)CN(CCCCN)C(=O)CN(C(=O)CN(C(=O)CNCCCCN)[C@@H](C)c1ccccc1)[C@@H](C)c1ccccc1)[C@@H](C)c1ccccc1)[C@@H](C)c1ccccc1)[C@@H](C)c1ccccc1 [peptoid 26] | 49.5 | 0.7±0.1 | > 100 | > 100 | – | –
C[C@@H](c1ccccc1)N(CC(N)=O)C(=O)CN(C(=O)CN(CCCCN)C(=O)CN(C(=O)CN(CCCCN)C(=O)CN(CCCCN)C(=O)CN(C(=O)CN(C(=O)CN(CCCCN)C(=O)CN(C(=O)CN(C(=O)CN(CCCCN)C(=O)CN(CCc1c[nH]c2ccccc12)C(=O)CNCCc1c[nH]c2ccccc12)[C@@H](C)c1ccccc1)[C@@H](C)c1ccccc1)[C@@H](C)c1ccccc1)[C@@H](C)c1ccccc1)[C@@H](C)c1ccccc1)[C@@H](C)c1ccccc1 [peptoid 35] | 51.8 | 82.6±3.2 | 20.4 | 63.0 | – | –
C[C@@H](c1ccccc1)N(CC(N)=O)C(=O)CN(C(=O)CN(CCCCN)C(=O)CN(C(=O)CN(C(=O)CN(CCCCN)C(=O)CN(C(=O)CN(C(=O)CN(CCCCN)C(=O)CN(C(=O)CN(C(=O)CN(CCCCN)C(=O)CN(Cc1ccccc1)C(=O)CNCc1ccccc1)[C@@H](C)c1ccccc1)[C@@H](C)c1ccccc1)[C@@H](C)c1ccccc1)[C@@H](C)c1ccccc1)[C@@H](C)c1ccccc1)[C@@H](C)c1ccccc1)[C@@H](C)c1ccccc1 [peptoid 43] | 56.8 | 105.6±3.8 | < 3.1 | 6.4 | – | –
C[C@@H](c1ccccc1)N(CC(N)=O)C(=O)CN(C(=O)CN(CCCCN)C(=O)CN(C(=O)CN(C(=O)CN(CCCCN)C(=O)CN(C(=O)CN(C(=O)CN(CCCCN)C(=O)CN(C(=O)CN(C(=O)CN(CCCCN)C(=O)CN(CCc1c[nH]c2ccccc12)C(=O)CNCCc1c[nH]c2ccccc12)[C@@H](C)c1ccccc1)[C@@H](C)c1ccccc1)[C@@H](C)c1ccccc1)[C@@H](C)c1ccccc1)[C@@H](C)c1ccccc1)[C@@H](C)c1ccccc1)[C@@H](C)c1ccccc1 [peptoid 6] | 57.2 | 101.6±5.8 | 9.6 | 22.0 | – | –
C[C@@H](c1ccccc1)N(CC(=O)N(CCCCN)CC(=O)N(CCc1c[nH]c2ccccc12)CC(=O)N(CCc1c[nH]c2ccccc12)CC(N)=O)C(=O)CN(CCCCN)C(=O)CN(CCCCN)C(=O)CN(Cc1ccccc1)C(=O)CN(Cc1ccccc1)C(=O)CN(CCCCN)C(=O)CN(C(=O)CN(C(=O)CNCCCCN)[C@@H](C)c1ccccc1)[C@@H](C)c1ccccc1 [peptoid 40] (H-[Nlys][Nspe][Nspe][Nlys][Nphe][Nphe][Nlys][Nlys][Nspe][Nlys][Gly(N(CH2)2(3-indolyl))][Gly(N(CH2)2(3-indolyl))]-NH2) | 47.5 | 8.9±0.2 | > 100 | > 100 | – | –
C[C@@H](c1ccccc1)N(CC(N)=O)C(=O)CN(CCCCN)C(=O)CN(CCCCN)C(=O)CN(C(=O)CN(C(=O)CN(CCCCN)C(=O)CN(CCc1c[nH]c2ccccc12)C(=O)CN(C(=O)CN(CCCCN)C(=O)CN(C(=O)CN(C(=O)CNCCCCN)[C@@H](C)c1ccccc1)[C@@H](C)c1ccccc1)[C@@H](C)c1ccccc1)[C@@H](C)c1ccccc1)[C@@H](C)c1ccccc1 [peptoid 24] | 49.4 | 1.5±0.0 | > 100 | > 100 | – | –
C[C@@H](c1ccccc1)N(CC(N)=O)C(=O)CN(CCCCN)C(=O)CN(CCCCN)C(=O)CN(C(=O)CN(C(=O)CN(CCCCN)C(=O)CN(C(=O)CN(C(=O)CN(CCCCN)C(=O)CN(Cc1ccccc1)C(=O)CN(Cc1ccccc1)C(=O)CNCCCCN)[C@@H](C)c1ccccc1)[C@@H](C)c1ccccc1)[C@@H](C)c1ccccc1)[C@@H](C)c1ccccc1 [peptoid 47] | 47.8 | 4.8±0.2 | > 100 | > 100 | – | –
C[C@@H](c1ccccc1)N(CC(=O)N(CCCCN)CC(=O)N(CC(=O)N(CC(=O)N(CCCCN)CC(=O)N(CC(=O)N(CC(=O)N(CCCCN)CC(N)=O)[C@@H](C)c1ccccc1)[C@@H](C)c1ccccc1)[C@@H](C)c1ccccc1)[C@@H](C)c1ccccc1)C(=O)CN(C(=O)CN(CCCCN)C(=O)CN(CCc1c[nH]c2ccccc12)C(=O)CNCCc1c[nH]c2ccccc12)[C@@H](C)c1ccccc1 [peptoid 37] (H-[Gly(N(CH2)2(3-indolyl))][Gly(N(CH2)2(3-indolyl))][Nlys][Nspe][Nspe][Nlys][Nspe][Nspe][Nlys][Nspe][Nspe][Nlys]-NH2) | 52.7 | – | 21.1 | 57.0 | 13.2 | 38.6
